Results taken from ChEMBL document CHEMBL5223066, “The medicinal chemistry of mitochondrial dysfunction: a critical overview of efforts to modulate mitochondrial health” (RSC Med Chem, 2021).
Each block holds one molecule with its values, some of them ahead of it.

Tests used:
[1] = Cmax in rat at 3 mg/kg, iv; assay type: ADME, organism-based; design: dose 3 mg/kg, route iv; details: in vivo
[2] = Drug concentration in brain of mouse at 400 mg/kg, po qd; assay type: ADME, organism-based; details: in vivo, read-out: Ct
[3] = Induction of mitophagy in human HeLa cells; assay type: functional, cell-based
[4] = Ratio of drug level in brain to blood in BALB/c mouse at 5 mg/kg, po; assay type: ADME, organism-based
[5] = Cmax in human CSF at 1000 mg, po bid administered for 8 weeks; assay type: ADME, organism-based, Cerebrospinal fluid; design: dose 1000 mg, time 8 weeks, route po
[6] = Cmax in human CSF at 500 mg, po qd administered for 8 weeks; assay type: ADME, organism-based, Cerebrospinal fluid; design: time 8 weeks, dose 500 mg, route po
[7] = Efflux ratio in dog MDCK-MDR1 cells; assay type: ADME, cell-based, Canis lupus familiaris
hERG (KCNH2) = hERG (KCNH2) (Homo sapiens, UniProt Q12809); assay: Inhibition of hERG at 30 uM relative to control; assay type: toxicity
hERG (KCNH2), sequence (Q12809 whole entry): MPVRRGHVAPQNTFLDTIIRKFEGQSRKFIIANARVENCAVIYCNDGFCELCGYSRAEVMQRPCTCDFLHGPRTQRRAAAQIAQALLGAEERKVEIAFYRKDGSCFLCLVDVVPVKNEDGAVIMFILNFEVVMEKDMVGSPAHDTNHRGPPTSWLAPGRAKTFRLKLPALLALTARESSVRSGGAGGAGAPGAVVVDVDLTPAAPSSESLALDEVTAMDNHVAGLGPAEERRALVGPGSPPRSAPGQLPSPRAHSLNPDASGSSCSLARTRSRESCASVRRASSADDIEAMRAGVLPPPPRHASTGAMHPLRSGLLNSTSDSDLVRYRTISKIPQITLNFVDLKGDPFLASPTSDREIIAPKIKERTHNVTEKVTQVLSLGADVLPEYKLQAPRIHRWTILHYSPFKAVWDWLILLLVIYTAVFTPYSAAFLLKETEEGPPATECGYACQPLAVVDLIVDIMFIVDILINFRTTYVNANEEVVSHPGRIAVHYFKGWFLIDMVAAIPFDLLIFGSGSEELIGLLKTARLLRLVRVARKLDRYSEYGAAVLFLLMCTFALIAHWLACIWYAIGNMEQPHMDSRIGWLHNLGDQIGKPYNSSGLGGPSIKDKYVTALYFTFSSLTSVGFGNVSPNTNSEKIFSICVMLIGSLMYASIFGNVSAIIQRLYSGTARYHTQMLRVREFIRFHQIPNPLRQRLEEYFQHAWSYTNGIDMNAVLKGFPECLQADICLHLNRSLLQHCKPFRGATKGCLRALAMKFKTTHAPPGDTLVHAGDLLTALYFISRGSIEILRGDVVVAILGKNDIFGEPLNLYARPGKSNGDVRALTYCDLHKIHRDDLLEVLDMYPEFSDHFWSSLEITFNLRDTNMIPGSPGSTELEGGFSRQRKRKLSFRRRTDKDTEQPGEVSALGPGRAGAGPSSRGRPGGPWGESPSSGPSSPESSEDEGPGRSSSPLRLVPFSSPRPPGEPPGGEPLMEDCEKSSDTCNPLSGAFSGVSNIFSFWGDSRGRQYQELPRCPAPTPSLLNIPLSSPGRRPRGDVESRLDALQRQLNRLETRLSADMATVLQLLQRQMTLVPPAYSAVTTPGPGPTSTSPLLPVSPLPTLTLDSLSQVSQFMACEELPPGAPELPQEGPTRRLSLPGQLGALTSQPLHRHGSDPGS

Cmax [1]: 2960 nM
SMILES: CN(CCOc1ccc(CC2SC(=O)NC2=O)cc1)c1ccccn1 (stereo not drawn) [ROSIGLITAZONE]

SMILES: c1coc(CNc2ncnc3[nH]cnc23)c1 [KINETIN]
concentration [2]: 2970 nM

EC50 [3]: 440 nM
SMILES: FC(F)(F)c1cc2c(NC3CCCc4ccccc43)ncnc2[nH]1 (stereo not drawn)

Kp [4]: 0.015
SMILES: CO[C@H]1C[C@@H]2CC[C@@H](C)[C@@](O)(O2)C(=O)C(=O)N2CCCC[C@H]2C(=O)O[C@H]([C@H](C)C[C@@H]2CC[C@@H](OCCO)[C@H](OC)C2)CC(=O)[C@H](C)/C=C(\C)[C@@H](O)[C@@H](OC)C(=O)[C@H](C)C[C@H](C)/C=C/C=C/C=C/1C [EVEROLIMUS]

Cmax [5]: 741 nM
Cmax [6]: 741 nM
SMILES: CN(C)C(=N)N=C(N)N [METFORMIN]

efflux ratio [7]: 23
SMILES: C[C@@H]1C[C@@H](NC(=O)c2ncc(-c3cccc(C#N)c3)o2)CN1C#N
inhibition at 30 µM (hERG (KCNH2)): 30.2%
